According to paper PMC3711671 (Nature chemical biology, 2012):

Key:
[1] = target: recombinant PKM2 monomers and tetramers (Homo sapiens, UniProt P14618); assay type: biochemical; conditions: 100 µM FBP
[2] = target: PKM2 in A549 cells (Homo sapiens, UniProt P14618); test: Size exclusion chromatography of cell lysates; assay type: cell-based; conditions: 100 μM pervanadate for 10 min
Sequence of PKM2 in A549 cells (P14618 2-531 limits assumed): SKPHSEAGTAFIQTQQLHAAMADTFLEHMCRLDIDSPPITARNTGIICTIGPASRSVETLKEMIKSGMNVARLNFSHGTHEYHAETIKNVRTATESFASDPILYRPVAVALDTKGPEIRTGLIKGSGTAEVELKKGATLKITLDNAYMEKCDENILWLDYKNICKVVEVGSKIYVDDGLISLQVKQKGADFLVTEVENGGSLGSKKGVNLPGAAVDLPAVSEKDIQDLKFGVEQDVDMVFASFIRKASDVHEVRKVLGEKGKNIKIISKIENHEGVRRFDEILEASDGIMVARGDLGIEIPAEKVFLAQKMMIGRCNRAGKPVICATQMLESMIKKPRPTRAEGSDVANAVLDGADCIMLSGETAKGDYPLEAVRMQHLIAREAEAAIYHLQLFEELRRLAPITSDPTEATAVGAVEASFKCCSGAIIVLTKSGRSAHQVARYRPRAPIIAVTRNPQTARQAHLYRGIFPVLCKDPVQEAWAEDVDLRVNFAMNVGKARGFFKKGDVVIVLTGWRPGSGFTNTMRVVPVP

Sequence of recombinant PKM2 monomers and tetramers (P14618 whole entry): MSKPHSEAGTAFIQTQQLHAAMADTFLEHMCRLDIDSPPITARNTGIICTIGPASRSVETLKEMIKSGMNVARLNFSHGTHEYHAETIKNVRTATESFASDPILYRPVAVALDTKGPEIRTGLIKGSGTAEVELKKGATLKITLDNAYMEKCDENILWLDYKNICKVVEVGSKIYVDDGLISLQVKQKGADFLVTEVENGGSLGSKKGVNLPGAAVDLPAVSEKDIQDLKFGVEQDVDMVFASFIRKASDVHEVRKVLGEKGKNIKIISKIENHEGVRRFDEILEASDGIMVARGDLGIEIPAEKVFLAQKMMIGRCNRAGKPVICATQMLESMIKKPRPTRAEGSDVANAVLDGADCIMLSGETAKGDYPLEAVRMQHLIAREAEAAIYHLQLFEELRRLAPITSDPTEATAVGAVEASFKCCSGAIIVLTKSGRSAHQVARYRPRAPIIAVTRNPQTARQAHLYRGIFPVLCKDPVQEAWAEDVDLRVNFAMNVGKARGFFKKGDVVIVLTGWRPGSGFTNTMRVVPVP

effect on PKM2 tetramer activity [1]	increase of activity of PKM2 monomers [1]	Compound	PKM2 subunit stoichiometry in cells after pervanadate [2]
minimal effects	approximately 70%	O=C(COP(=O)(O)O)[C@@H](O)[C@H](O)[C@H](O)COP(=O)(O)O [FBP, fructose-1,6-bisphosphate]	–
–	–	Pervanadate	disappearance of PKM2 tetramers
